# A melting point compilation (Tetko et al.; mined from patent text by program, amines drawn as free bases though some values may be those of a salt)
row,Compound,melting point [°C]
1,COc1ccc(C(=O)c2cc(Br)ccc2N)cc1,120
2,O=c1c2c(Cc3ccccc3OC(F)(F)F)n[nH]c2c2cccnc2n1-c1cccc(OC(F)(F)F)c1,233 to 236
3,CC(C)(C)C(=O)NCc1cccs1,64 to 65
4,CCCCN(Cc1ccc(-c2ccccc2-c2nnnn2C(c2ccccc2)(c2ccccc2)c2ccccc2)cc1)c1cc(C)nc(C)n1,125 to 127
5,Cc1cc(C)c(S(=O)(=O)NCCCCOc2ccc(-n3ccnc3)cc2)c(C)c1,130 to 131
6,COc1cc(Nc2c(C#N)cnc3cc(/C=C/CCN4CCCCC4)c(OC)cc23)c(Cl)cc1Cl,140 to 142
7,COc1cc(NC(C)=O)c([N+](=O)[O-])cc1C(=O)O,186 to 188
8,O=[N+]([O-])c1ccc2sc(=Nc3ccccc3)sc2c1,136 to 138
9,CC(=O)NC[C@H]1CN(c2ccc(C3=CCOCC3)cc2)C(=O)O1,182 to 184
10,O=C(CCS)N[C@@H](Cc1ccccc1)C(=O)O,106 to 107
11,CCCCCC(C)(c1ccc(O)c(C)c1)c1ccc(O)c(C)c1,99 to 101
12,CN1CCC(c2ccc(-c3ccccc3)cc2)(C(C)(C)O)CC1,192 to 193
13,COc1ccc2c(C(=O)N3CCC[C@H]3C(=O)O)cc3cc4c(cc3c2c1)OCO4,207 to 208
14,CCCCOc1ccc(OCCN2CCN(c3cc(Cl)nnc3Cl)CC2)cc1,135 to 136
15,Cc1cc(C)cc([PH](=O)c2cc(C)cc(C)c2)c1,82.4
16,C=CCOC(=O)c1ccc(NC(=O)C(=NO)c2ccc3c(c2)C(C)(C)CCC3(C)C)cc1,176 to 177
17,O=c1c2c(Cc3cccc(O)c3)n[nH]c2c2cccnc2n1-c1ccccc1,276 to 278
18,C=C(C)OC(=O)N1C(=O)[C@H](C)Nc2nc(Cl)ccc21,86 to 87
19,O=C(O)c1ccc(N2C(=O)CCC2(CO)CO)cc1,195 to 197
20,CCOC(=O)CCc1oc(-n2ccnc2C)nc1-c1ccc(Cl)cc1,70 to 71
21,Nc1ncnc2c1c(I)cn2COCCO,169 to 170
22,Cc1cc2c(c(C(O)c3cn(C(c4ccccc4)(c4ccccc4)c4ccccc4)cn3)c1)OC(C)(C)OC2 (centres undefined),205 to 215
23,"CC(C)(CO)C(O)(Cn1cncn1)c1ccc(F)cc1F (single isomer, unassigned; (+))",116 to 118
24,COc1cc2c(Nc3cc(OC)c(OC)c(OC)c3)c(C#N)cnc2cc1/C=C/CCO,184 to 185
25,CS(=O)(=O)OCCN(CCOS(C)(=O)=O)c1cc(C(=O)O)c([N+](=O)[O-])cc1[N+](=O)[O-],200 to 210

row,Compound,melting point [°C]
1,c1ccc2c(c1)OCCc1c-2n(CCCCCCN2CCCCC2)c2ccccc12,110
2,O=C1N(CC2CCCO2)c2ccc(F)cc2C12COc1cc3c(cc12)CCO3 (centres undefined),167 to 169
3,O=C(NC[C@@H](C(=O)NO)N1CCCCC1)c1ccc(OCc2ccnc(Br)c2)cc1,150
4,CC1(COc2ccc([N+](=O)[O-])cc2)CC(O)c2cc(O)c(C(C)(C)C)cc2O1 (centres undefined),194 to 201
5,CC(CC(C)Oc1ccc(-c2ccc(C#N)cc2)cc1)Oc1ccc(-c2ccc(C#N)cc2)cc1 (centres undefined),140
6,Cc1ccc(-c2cc(-c3ccc(O)c(F)c3)nc3ccc(O)cc23)cc1,184 to 188
7,COC(=O)CCC/C=C\[C@@H]1C[C@@H](NS(=O)(=O)c2ccc(Cl)cc2)CN1S(=O)(=O)c1ccc(Cl)cc1,95 to 96
8,O=C(Nc1cc(C(F)(F)F)cc(C(F)(F)F)c1)c1ccccc1O,196 to 198
9,CN1C(=O)C(=O)N(CCCCCBr)C1=S,48 to 50
10,Nc1ncccc1-c1nc2cc(-c3cccnc3)cnc2n1-c1ccc(CNS(=O)(=O)c2ccccc2)cc1,217 to 219
11,Cc1nc2ccccc2n1-c1nc(Cl)nc(Cl)n1,> 300
12,CCCCCCCN1CCN(C(=O)C2CCC(c3cccnc3)N2)CC1 (centres undefined),138 to 143
13,CO[C@@H](C)[C@](C)(OC)c1cc(F)cc(OCc2ccc3ccccc3c2)c1 (racemic),58 to 59
14,COc1cc(NC(=O)CCCCCN2CCNCC2)c2nccc(C)c2c1,122 to 124
15,CCOC(=O)CNC(=O)C1(N(C(=O)c2ccc(N)cc2)N2CCCCC2)CCCCC1,92 to 96
16,CC1CC(=O)c2c(C(=O)Nc3cccnc3)c[nH]c2C1 (centres undefined),225 to 227
17,O=c1[nH]nc(-c2c(Cl)ccc3cc(Cl)cnc23)o1,87
18,COc1nc(C)cnc1NS(=O)(=O)c1cccnc1-c1ccc(N2CCOCC2)cc1,197 to 198
19,COC(=O)C1=C(C)Nc2cc[nH]c(=O)c2C1c1ccccc1C(F)(F)F (centres undefined),295
20,COC(C)CCOc1c(-c2ccc(S(C)(=O)=O)cc2)cnn(-c2ccc(F)c(F)c2)c1=O (centres undefined),99 to 101
21,CC(=O)NC[C@H]1CN(c2ccc(C(=O)c3cnc4c(Br)cc(C)cn34)cc2)C(=O)O1,221 to 223
22,O=C(O)COc1ccc2c(-c3ccc(Cl)cc3)noc2c1Cl,254 to 257
23,COc1ccc(C(=O)CC2CSCCC2=O)cc1 (centres undefined),123 to 125
24,Oc1ccc(-c2ccc3ccc(O)cc3c2)cc1,210
